Results as given in US20230322717A1, “SOLID FORM OF PYRAZINE SUBSTITUTED NICOTINAMIDE, AND PREPARATION AND USE THEREOF” (Shenzhen TargetRx, Inc., priority 2020, published 2023).
In brackets after ≈: the same amount, converted by molar mass. Values belong to the molecule of their own block, whether it stands above or below them.

Legend:
Format in all cases: physicochemical
[1] = Dynamic moisture adsorption and desorption analysis (DVS)
Description: The instrument model used for dynamic moisture adsorption and desorption analysis was IGA Sorp (Hidentity Isochema). The samples were measured in a gradient mode with a moisture range of 0% to 90%, wherein the humidity increment of each gradient was 10%.

[2] = Stability study of the crystal form VI of compound A (high temperature, high humidity, light)
[3] = Stability study of the crystal form I of compound A and the crystal form I of compound A p-toluenesulfonate (HPLC, XRPD)
Description: A certain amount of samples of the crystal form I of compound A and the crystal form I of compound A p-toluenesulfonate (Batch No.: PTSA-A1) were placed in a stability test chamber, and kept at 40° C./75%RH and 60° C. for 7 days, respectively. The samples were tested by HPLC and XRPD at various time points.

[4] = Solubility study in SGF, FaSSIF and FeSSIF (HPLC of filtrate, XRPD of solid); conditions: 37° C.; for Crystal form: XRPD of solid
Description: The solubilities of the crystal form I of compound A and the crystal form I of compound A p-toluenesulfonate in SGF (simulated gastric fluid), FaSSIF (fasted state simulated intestinal fluid) and FeSSIF (fed state simulated intestinal fluid) were studied.
The solubilities of samples in SGF, FaSSIF and FeSSIF at 37° C. for 24 hours were determined. 40 mg of the sample was placed in a sample bottle, and 1.5 mL of solvent was added. The mixture was mixed well, and shaken on a shaker at 200 rpm for 24 hours. The suspension was filtered at 0.5, 2 and 24 hours. The filtrate was analyzed by HPLC, and the solid was tested by XRPD.

[5] = Solubility study of the starting material (the crystal form I of compound A) in different solvents
Description: About 2 mg of the starting material was weighed and added into a sample bottle, and different solvents were added respectively, until the starting material was dissolved.

water absorption ([1]; 0-60%RH): about 0.4%
water absorption ([1]; 0-90%RH): about 1.5%
crystal form after DVS test (XRPD) ([1]; before and after DVS test): not changed
hygroscopicity (DVS) ([1]; moisture range 0% to 90%): slightly hygroscopic
Compound: O=C(Nc1ccc(OC(F)(F)Cl)cc1)c1cnc(N2CC[C@@H](F)C2)c(-c2cnccn2)c1.O=S(=O)(O)c1ccccc1 [(R)-N-(4-(chlorodifluoromethoxy)phenyl)-6-(3-fluoropyrrolidin-1-yl)-5-(pyrazin-2-yl)nicotinamide benzenesulfonate]

Appearance ([2]; 0 day): Off-white powder
Content ([2]; 0 day): 99.40%
Crystal form ([2]; 0 day): The crystal form VI
Impurity content ([2]; 0 day): 0.87%
Appearance ([2]; 25° C./92.5%RH, 10 days): Off-white powder
Content ([2]; 25° C./92.5%RH, 10 days): 98.40%
Crystal form ([2]; 25° C./92.5%RH, 10 days): The crystal form VI
Hygroscopic weight gain ([2]; 25° C./92.5%RH, 10 days): 0.34%
Impurity content ([2]; 25° C./92.5%RH, 10 days): 0.80%
Appearance ([2]; 25° C./92.5%RH, 30 days): Off-white powder
Content ([2]; 25° C./92.5%RH, 30 days): 98.80%
Crystal form ([2]; 25° C./92.5%RH, 30 days): The crystal form VI
Hygroscopic weight gain ([2]; 25° C./92.5%RH, 30 days): 2.72%
Impurity content ([2]; 25° C./92.5%RH, 30 days): 0.85%
Appearance ([2]; 40° C./75%RH, 10 days): Off-white powder
Content ([2]; 40° C./75%RH, 10 days): 98.40%
Crystal form ([2]; 40° C./75%RH, 10 days): The crystal form VI
Hygroscopic weight gain ([2]; 40° C./75%RH, 10 days): 1.26%
Impurity content ([2]; 40° C./75%RH, 10 days): 0.79%
Appearance ([2]; 40° C./75%RH, 30 days): Off-white powder
Content ([2]; 40° C./75%RH, 30 days): 101.40%
Crystal form ([2]; 40° C./75%RH, 30 days): The crystal form VI
Hygroscopic weight gain ([2]; 40° C./75%RH, 30 days): 1.26%
Impurity content ([2]; 40° C./75%RH, 30 days): 0.80%
Appearance ([2]; 60° C., 10 days): Off-white powder
Content ([2]; 60° C., 10 days): 99.90%
Crystal form ([2]; 60° C., 10 days): The crystal form VI
Impurity content ([2]; 60° C., 10 days): 0.81%
Appearance ([2]; 60° C., 30 days): Off-white powder
Content ([2]; 60° C., 30 days): 96.90%
Crystal form ([2]; 60° C., 30 days): The crystal form VI
Impurity content ([2]; 60° C., 30 days): 0.84%
Appearance ([2]; Light, 10 days): Off-white powder
Content ([2]; Light, 10 days): 99.70%
Crystal form ([2]; Light, 10 days): The crystal form VI
Impurity content ([2]; Light, 10 days): 0.85%
Compound: O=C(Nc1ccc(OC(F)(F)Cl)cc1)c1cnc(N2CC[C@@H](F)C2)c(-c2cnccn2)c1 [the crystal form VI of compound A]

Purity ([3]; 40° C./75% RH, Day 0, HPLC): 96.1%
Purity ([3]; 40° C./75% RH, Day 3, HPLC): 97.1%
Crystal form ([3]; 40° C./75% RH, Day 3, XRPD): Initial crystal form
Purity ([3]; 40° C./75% RH, Day 7, HPLC): 97.1%
Crystal form ([3]; 40° C./75% RH, Day 7, XRPD): Initial crystal form
Purity ([3]; 60° C., Day 0, HPLC): 96.1%
Purity ([3]; 60° C., Day 3, HPLC): 96.7%
Crystal form ([3]; 60° C., Day 3, XRPD): Initial crystal form
Purity ([3]; 60° C., Day 7, HPLC): 97.1%
Crystal form ([3]; 60° C., Day 7, XRPD): Initial crystal form
Solubility ([4]; FaSSIF, 0.5 h): 4.2 µg/mL (≈ 9.05 µM)
pH ([4]; FaSSIF, 0.5 h): 6.62
Crystal form ([4]; FaSSIF, 0.5 h): Initial crystal form
Solubility ([4]; FaSSIF, 2 h): 4.8 µg/mL (≈ 10.3 µM)
pH ([4]; FaSSIF, 2 h): 6.63
Crystal form ([4]; FaSSIF, 2 h): Changed
Solubility ([4]; FaSSIF, 24 h): 4.3 µg/mL (≈ 9.27 µM)
pH ([4]; FaSSIF, 24 h): 6.63
Crystal form ([4]; FaSSIF, 24 h): Changed
Solubility ([4]; FeSSIF, 0.5 h): 220 µg/mL (≈ 474 µM)
pH ([4]; FeSSIF, 0.5 h): 5.04
Crystal form ([4]; FeSSIF, 0.5 h): Initial crystal form
Solubility ([4]; FeSSIF, 2 h): 180 µg/mL (≈ 388 µM)
pH ([4]; FeSSIF, 2 h): 5.05
Crystal form ([4]; FeSSIF, 2 h): Changed
Solubility ([4]; FeSSIF, 24 h): 57 µg/mL (≈ 123 µM)
pH ([4]; FeSSIF, 24 h): 5.02
Crystal form ([4]; FeSSIF, 24 h): Changed
Solubility ([4]; SGF, 0.5 h): 120 µg/mL (≈ 259 µM)
pH ([4]; SGF, 0.5 h): 1.24
Crystal form ([4]; SGF, 0.5 h): Initial Crystal form
Solubility ([4]; SGF, 2 h): 63 µg/mL (≈ 136 µM)
pH ([4]; SGF, 2 h): 1.24
Crystal form ([4]; SGF, 2 h): Changed
Solubility ([4]; SGF, 24 h): 46 µg/mL (≈ 99.2 µM)
pH ([4]; SGF, 24 h): 1.23
Crystal form ([4]; SGF, 24 h): Changed
Compound: O=C(Nc1ccc(OC(F)(F)Cl)cc1)c1cnc(N2CC[C@@H](F)C2)c(-c2cnccn2)c1 [The crystal form I of compound A]

Solubility ([5]; solvent: 2-Butanone): ~73670 µg/mL (≈ 159000 µM)
Solubility ([5]; solvent: Acetone): ~77000 µg/mL (≈ 166000 µM)
Solubility ([5]; solvent: Acetonitrile): ~53250 µg/mL (≈ 115000 µM)
Solubility ([5]; solvent: Ethanol): ~1310 µg/mL (≈ 2820 µM)
Solubility ([5]; solvent: Ethyl Acetate): ~49250 µg/mL (≈ 106000 µM)
Solubility ([5]; solvent: Isobutanol): ~730 µg/mL (≈ 1570 µM)
Solubility ([5]; solvent: Isopropyl Acetate): ~22100 µg/mL (≈ 47600 µM)
Solubility ([5]; solvent: Isopropyl Alcohol): ~920 µg/mL (≈ 1980 µM)
Solubility ([5]; solvent: Methanol): ~11830 µg/mL (≈ 25500 µM)
Solubility ([5]; solvent: Methyl Tert-Butyl Ether): ~2800 µg/mL (≈ 6040 µM)
Solubility ([5]; solvent: Tetrahydrofuran): ~121000 µg/mL (≈ 261000 µM)
Solubility ([5]; solvent: Toluene): ~1230 µg/mL (≈ 2650 µM)
Solubility (mg/mL) ([5]; solvent: Water): <<0.55 mg/mL
Compound: O=C(Nc1ccc(OC(F)(F)Cl)cc1)c1cnc(N2CC[C@@H](F)C2)c(-c2cnccn2)c1 [the crystal form I of compound A]
